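Cultured in 96-well plates, cells were exposed to test compound for 48 hours across five concentrations. GI50 is the concentration that inhibits growth by half.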 Activity calls are given as the source filed them. Cut-off read from the data, not from the text of the source: active = GI50 up to about 1.1 µM and inactive = higher.
Experiments:
Experiment in all cases: NCI anticancer screen, dose series, 48 h
SN12C = tested on: SN12C
KM12 = tested on: KM12
NCI-H522 = tested on: NCI-H522
RPMI-8226 = tested on: RPMI-8226
K562 = tested on: K562
A498 = tested on: A498
OVCAR-3 = tested on: OVCAR-3
A549 = tested on: A549
UACC-257 = tested on: UACC-257
CCRF-CEM = tested on: CCRF-CEM
MOLT-4 = tested on: MOLT-4
786-0 = tested on: 786-0
HCT-116 = tested on: HCT-116
SR = tested on: SR
SK-MEL-28 = tested on: SK-MEL-28
MDA-MB-231 = tested on: MDA-MB-231
MDA-MB-435 = tested on: MDA-MB-435

Compound | GI50 (SN12C) | GI50 (KM12) | GI50 (NCI-H522) | GI50 (RPMI-8226) | GI50 (K562) | GI50 (A498) | GI50 (OVCAR-3) | GI50 (A549) | GI50 (UACC-257) | GI50 (CCRF-CEM) | GI50 (MOLT-4) | GI50 (786-0) | GI50 (HCT-116) | GI50 (SR) | GI50 (SK-MEL-28) | GI50 (MDA-MB-231) | GI50 (MDA-MB-435)
NCc1nnn(Cc2ccccc2)c1N | > 100 µM (inactive) | > 100 µM (inactive) | > 100 µM (inactive) | > 100 µM (inactive) | > 100 µM (inactive) | > 100 µM (inactive) | > 100 µM (inactive) | > 100 µM (inactive) | > 100 µM (inactive) | > 100 µM (inactive) | > 100 µM (inactive) | > 100 µM (inactive) | > 100 µM (inactive) | > 100 µM (inactive) | > 100 µM (inactive) | > 100 µM (inactive) | > 100 µM (inactive)
COc1cc(C2C3=C(COC3=O)OC(C)(C)Oc3cc4c(cc32)OCO4)cc(OC)c1OC (stereo unspecified) | 0.466 µM (active) | 0.212 µM (active) | 0.278 µM (active) | 0.444 µM (active) | 0.353 µM (active) | 0.281 µM (active) | 0.447 µM (active) | 0.344 µM (active) | 1.17 µM (inactive) | 0.395 µM (active) | 0.453 µM (active) | 0.293 µM (active) | 0.318 µM (active) | 0.195 µM (active) | 0.296 µM (active) | 0.358 µM (active) | 0.167 µM (active)
O=CC1=C(C(=O)OC(c2ccccc2)c2ccccc2)N2C(=O)[C@@H](NC(=O)Cc3cccs3)[C@H]2SC1 | > 100 µM (inactive) | 91.2 µM (inactive) | 64.3 µM (inactive) | 79.4 µM (inactive) | > 100 µM (inactive) | > 100 µM (inactive) | > 100 µM (inactive) | > 100 µM (inactive) | > 100 µM (inactive) | 57.3 µM (inactive) | 53.6 µM (inactive) | > 100 µM (inactive) | 83 µM (inactive) | 13.2 µM (inactive) |  | > 100 µM (inactive) | 85.5 µM (inactive)
O=C(NNCc1ccco1)c1cc2ccccc2[nH]1 | > 61 µM (inactive) | 65.8 µM (inactive) | 34.3 µM (inactive) | > 100 µM (inactive) | > 100 µM (inactive) | > 100 µM (inactive) | > 55.6 µM (inactive) | > 100 µM (inactive) | > 62.5 µM (inactive) | > 100 µM (inactive) | > 100 µM (inactive) | > 51.5 µM (inactive) | > 86.1 µM (inactive) | > 78.9 µM (inactive) | > 100 µM (inactive) | > 100 µM (inactive) | > 85.5 µM (inactive)
CC1(C)[C@@H]2CC[C@@]1(C)[C@H](O)[C@@H]2SCc1ccccc1 | 17.8 µM (inactive) | 17.8 µM (inactive) | 15.2 µM (inactive) | 27.5 µM (inactive) | 25.2 µM (inactive) | < 0.01 µM (active) | 17.1 µM (inactive) | 19 µM (inactive) | 14 µM (inactive) | 19 µM (inactive) | 16.5 µM (inactive) | 17 µM (inactive) | 17.2 µM (inactive) | 28.8 µM (inactive) | 17.5 µM (inactive) | 16.8 µM (inactive) | 18.2 µM (inactive)
COc1ccc2c(CCNS(=O)(=O)c3ccccc3)c(C(C)=O)[nH]c2c1 | 38.5 µM (inactive) | 54.2 µM (inactive) | 20.5 µM (inactive) | > 100 µM (inactive) | > 74 µM (inactive) | > 62.7 µM (inactive) | > 100 µM (inactive) | 54.3 µM (inactive) | > 32.4 µM (inactive) | > 65.2 µM (inactive) | 48.8 µM (inactive) | 49.5 µM (inactive) | 45.3 µM (inactive) | 64.6 µM (inactive) | 63.8 µM (inactive) | > 85.5 µM (inactive) | 12.3 µM (inactive)
CC(=O)CC1(CBr)Nc2ccc([N+](=O)[O-])cc2NC1=O (stereo unspecified) | 93.1 µM (inactive) | 56.2 µM (inactive) | 18.5 µM (inactive) | 44.3 µM (inactive) | 83.8 µM (inactive) | > 100 µM (inactive) | 28.1 µM (inactive) | > 100 µM (inactive) | > 100 µM (inactive) | 45.2 µM (inactive) | 42.9 µM (inactive) | 31.2 µM (inactive) | 31.8 µM (inactive) | 34 µM (inactive) | 97.7 µM (inactive) | > 100 µM (inactive) | > 100 µM (inactive)
COc1cc(/C=N\O)nc(-c2ccccn2)c1 | 0.264 µM (active) | 0.55 µM (active) | 0.129 µM (active) | 0.337 µM (active) | 0.399 µM (active) | 1.3 µM (inactive) | 0.222 µM (active) | 0.344 µM (active) | 2.4 µM (inactive) | 0.175 µM (active) | 0.173 µM (active) | 0.179 µM (active) | 0.301 µM (active) | 0.0438 µM (active) | 0.729 µM (active) | 1.05 µM (active) | 1.6 µM (inactive)
O=C1OC(c2ccccc2)=N/C1=C\c1ccc(F)cc1 | > 100 µM (inactive) | > 100 µM (inactive) | 40.5 µM (inactive) | 38.9 µM (inactive) | > 100 µM (inactive) | > 100 µM (inactive) | 22.2 µM (inactive) | > 100 µM (inactive) | > 100 µM (inactive) | 35.8 µM (inactive) | 50.6 µM (inactive) | > 100 µM (inactive) | > 100 µM (inactive) | > 100 µM (inactive) | > 100 µM (inactive) | > 100 µM (inactive) | > 100 µM (inactive)
COC(=O)c1c(O)ccc2c1c1c(n2Cc2cc(OC)cc(OC)c2)C(=O)c2ccccc2C1=O | 6.03 µM (inactive) | 3.23 µM (inactive) | 3.03 µM (inactive) | 2.99 µM (inactive) | 5.28 µM (inactive) | 54.2 µM (inactive) | 7.87 µM (inactive) | 5.07 µM (inactive) | 23.9 µM (inactive) | 3.7 µM (inactive) | 4.42 µM (inactive) | 7.74 µM (inactive) | 4.74 µM (inactive) | 2.44 µM (inactive) | 13.7 µM (inactive) | 7.13 µM (inactive) | 2.67 µM (inactive)
CCOC(=O)c1c(Br)c(-c2ccc([N+](=O)[O-])cc2)c(Br)n1C | 9.06 µM (inactive) | > 10 µM (inactive) | > 10 µM (inactive) | > 10 µM (inactive) | > 10 µM (inactive) | > 10 µM (inactive) | > 10 µM (inactive) | > 10 µM (inactive) | > 10 µM (inactive) | > 10 µM (inactive) | > 10 µM (inactive) | > 10 µM (inactive) | > 10 µM (inactive) | > 10 µM (inactive) | > 10 µM (inactive) | > 10 µM (inactive) | > 10 µM (inactive)
O=[N+]([O-])c1ccc(Cl)c(/C=N/C23CC4CC(CC(C4)C2)C3)c1 | > 10 µM (inactive) | > 9.48 µM (inactive) | > 10 µM (inactive) | > 6.93 µM (inactive) | 2.89 µM (inactive) | > 10 µM (inactive) | > 9.48 µM (inactive) | > 10 µM (inactive) | > 10 µM (inactive) | 3.8 µM (inactive) | 5.18 µM (inactive) | > 7.66 µM (inactive) | 1.2 µM (inactive) | 4.1 µM (inactive) | > 10 µM (inactive) | > 10 µM (inactive) | > 6.34 µM (inactive)
COc1cc2cc(C(=O)N3CC(CCl)c4c3cc(NC(=O)C(C)(C)c3ccccc3[N+](=O)[O-])c3ccccc43)[nH]c2c(OC)c1OC (stereo unspecified) | 4.23 µM (inactive) | 1.86 µM (inactive) | 1.99 µM (inactive) | 173 µM (inactive) | 0.991 µM (active) | 0.78 µM (active) | 82 µM (inactive) | 0.675 µM (active) | 6.65 µM (inactive) | 0.13 µM (active) | 1.71 µM (inactive) | 1.36 µM (inactive) | 0.393 µM (active) | 0.192 µM (active) | 7.16 µM (inactive) | 3.03 µM (inactive) | 1.75 µM (inactive)
CCOC(=O)/C=C\C(C#N)(C#N)/N=C/c1ccsc1 | 18.2 µM (inactive) | 19.5 µM (inactive) | 0.9 µM (active) | 1.33 µM (inactive) | 3.13 µM (inactive) | 19 µM (inactive) | 2.54 µM (inactive) | 19.1 µM (inactive) | 6.81 µM (inactive) | 0.207 µM (active) | 1.21 µM (inactive) | 2.24 µM (inactive) | 2.17 µM (inactive) | 1.04 µM (active) | 2.38 µM (inactive) | 16.3 µM (inactive) | 2.39 µM (inactive)
CC(CO)CCNc1ncnc2c1ncn2CCC(=O)O (stereo unspecified) | > 100 µM (inactive) | > 100 µM (inactive) | > 100 µM (inactive) | > 100 µM (inactive) | > 100 µM (inactive) | > 100 µM (inactive) | > 100 µM (inactive) | > 100 µM (inactive) | > 100 µM (inactive) | > 100 µM (inactive) | > 100 µM (inactive) | > 100 µM (inactive) | > 100 µM (inactive) | > 100 µM (inactive) | > 100 µM (inactive) | > 100 µM (inactive) | > 100 µM (inactive)
Cc1cnc2nc(-c3ccc(F)cc3)cc(O)c2c1 | 67.6 µM (inactive) | 5.66 µM (inactive) | 13 µM (inactive) | 21.1 µM (inactive) | 4.52 µM (inactive) | 25.4 µM (inactive) | 27.5 µM (inactive) | 42.4 µM (inactive) | > 75.2 µM (inactive) | 25.6 µM (inactive) | 34.1 µM (inactive) | 32.5 µM (inactive) | 18.7 µM (inactive) | 5.14 µM (inactive) | > 87.1 µM (inactive) | > 73.1 µM (inactive) | 2.81 µM (inactive)

Reference: ChEMBL document CHEMBL1201862, “PubChem BioAssay data set” (2004)
